Series [1] has as its system LPS-stimulated bone marrow macrophages (BMMØ). Briefly: BMMØ cytokine secretion following LPS stimulation (ELISA, Luminex). In kind it is cell-based, C57BL/6J mice. On the procedure: Three hours later, cells were stimulated with 100 ng/mL LPS. After 48 hours, cell culture supernatants were collected and analyzed by enzyme-linked immunosorbent assays (ELISA) (BioLegend, San Diego, CA) to measure murine IL-6 and TNFα. MAGPIX Luminex bead-based multiplex ELISA (Thermo Fisher Scientific, Waltham, MA) measured for 7 various cytokines and chemokines, and data were analyzed using the Luminex xPONENT software (Millipore) as per manufacturer's instructions. The 7-plex panel included murine IFNβ, IL-10, IL-6, IL-1β, MCP-1 (CCL2), TNFα, and GROα (CXCL1).
After 48 hours, cell culture supernatants were collected and analyzed by enzyme-linked immunosorbent assays (ELISA) (BioLegend, San Diego, CA) to measure murine IL-6 and TNFα. MAGPIX Luminex bead-based multiplex ELISA (Thermo Fisher Scientific, Waltham, MA) measured for 7 various cytokines and chemokines, and data were analyzed using the Luminex xPONENT software (Milli-pore) as per manufacturer's instructions. The 7-plex panel included murine IFNβ, IL-10, TL-6, IL-1β, MCP-1 (CCL2), TNFα, and GROα (CXCL1).
For orientation: ELISA stands for enzyme-linked immunosorbent assay.

The subject of series [2] is T cells (CD3+) from splenocytes. Put plainly: Splenocyte apoptosis and cell death by AV/PI flow cytometry, T cells. Type of series: cell-based. Conditions: concentrations up to 30 μM.
In a further series the test system is T1, HDAC1, 2, 3.
T1 construct: other: range over the three isoforms; other: 237-359 nM compared to 30000 nM
Briefly: Fluorescence-based HDAC activity assay with fluorogenic peptide substrate (Reaction Biology). In kind it is biochemical. The method, then:
(§1) Fluorescence-based activity assays using fluorogenic peptides as substrates for HDAC1, 2, 3, 6, and 8 were performed by Reaction Biology Corporation (reactionbiology.com). […] The substrate for HDACs 1, 2, 3, and 6 was a fluorogenic peptide from p53 residues 379-382 (RHKK(Ac)AMC) (SEQ ID NO: 1). The substrate for HDAC8 was a fluorogenic peptide from p53 residues 379-382 (RHK(Ac)K(Ac)AMC) (SEQ ID NO: 2). SAHA-OH IC50 values were calculated using GraphPad Prism 4 program based on a sigmoidal dose-response equation. The blank (DMSO) value was entered as 1.00×10^−12 of concentration for curve fitting.

Another series concerns the target T2, HDAC6 (Homo sapiens, UniProt Q9UBN7).
T2 construct: purchased Reaction Biology Corporation
T2 sequence (Q9UBN7 1-1215): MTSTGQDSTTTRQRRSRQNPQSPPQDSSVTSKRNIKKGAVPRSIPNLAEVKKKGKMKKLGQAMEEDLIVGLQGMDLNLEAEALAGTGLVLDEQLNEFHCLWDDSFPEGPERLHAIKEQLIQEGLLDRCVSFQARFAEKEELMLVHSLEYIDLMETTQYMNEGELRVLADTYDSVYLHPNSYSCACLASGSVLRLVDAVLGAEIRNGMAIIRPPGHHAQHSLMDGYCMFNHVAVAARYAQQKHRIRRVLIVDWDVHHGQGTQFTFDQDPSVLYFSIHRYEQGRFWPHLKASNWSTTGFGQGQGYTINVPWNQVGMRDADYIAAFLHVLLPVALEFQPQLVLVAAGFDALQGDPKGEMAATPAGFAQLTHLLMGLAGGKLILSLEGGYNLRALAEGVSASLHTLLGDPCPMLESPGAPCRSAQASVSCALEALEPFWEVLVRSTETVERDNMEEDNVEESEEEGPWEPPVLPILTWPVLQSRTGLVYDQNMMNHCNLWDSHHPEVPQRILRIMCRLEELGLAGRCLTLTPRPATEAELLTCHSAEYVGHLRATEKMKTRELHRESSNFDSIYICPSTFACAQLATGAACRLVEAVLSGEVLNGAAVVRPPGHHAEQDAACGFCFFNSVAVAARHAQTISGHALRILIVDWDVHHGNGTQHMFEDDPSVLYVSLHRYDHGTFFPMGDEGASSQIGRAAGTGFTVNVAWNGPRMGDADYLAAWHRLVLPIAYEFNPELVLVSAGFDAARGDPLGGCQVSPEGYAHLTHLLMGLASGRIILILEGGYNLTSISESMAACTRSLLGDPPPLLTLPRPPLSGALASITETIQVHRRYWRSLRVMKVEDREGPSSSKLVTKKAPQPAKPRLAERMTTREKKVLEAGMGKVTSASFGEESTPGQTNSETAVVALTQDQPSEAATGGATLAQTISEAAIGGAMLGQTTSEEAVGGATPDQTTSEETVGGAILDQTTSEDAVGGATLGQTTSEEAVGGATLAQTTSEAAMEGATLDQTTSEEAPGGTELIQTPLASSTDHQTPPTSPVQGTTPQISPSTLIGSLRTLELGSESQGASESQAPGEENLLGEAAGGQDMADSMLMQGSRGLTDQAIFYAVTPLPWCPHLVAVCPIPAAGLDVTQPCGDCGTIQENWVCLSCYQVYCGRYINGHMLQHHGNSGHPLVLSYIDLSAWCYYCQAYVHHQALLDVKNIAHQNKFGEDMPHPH
Described as above. In kind it is biochemical. On the procedure: as §1

[3] abbreviates: 0-30 μM for 3 hours, then LPS 100 ng/mL 48 hours, ELISA.
The mark [4] stands for this setting: 10 μM, 3 hours before 48-hour LPS.
[5] abbreviates: 10 μM, 3 hours before 48-hour LPS, Luminex, relative to LPS control.

Entries after “also recorded” stand apart in the source; their conditions may differ.

Take `O=C(CCCCCCC(=O)Nc1ccc(CO)cc1)NO` [SAHA-OH, N^1-hydroxy-N^8-(4-(hydroxymethyl)phenyl)octanediamide]: in series [1] (setting [3]), the IL-6 cytokine secretion entry is given as “concentration-dependent reduction” and the TNFα cytokine secretion result is “concentration-dependent reduction”. In series [1] (setting [4]), the IL-6 secretion entry is “less effective than SAHA; also recorded: only moderately suppressed” and the MCP-1 cytokine secretions entry was “non-significantly affected”. In series [1] (setting [5]), the IFNβ cytokine levels result is “similarly suppressed cytokine levels compared to SAHA”, the IL-1β cytokine levels result was “did not affect IL-1β (FIG. 8B) cytokine levels as effectively as 10 μM SAHA” and the TNFα cytokine levels entry was “similarly suppressed cytokine levels compared to SAHA”. In series [1] (10 μM, Luminex, compared to LPS or SAHA-treated BMMØs), the “GROα (CXCL1) secretion” value is recorded as “significant upregulation”. The “toxicity for the T cell population” value in series [2] was “minimal toxicity”. In the series with HDAC1, 2, 3 (237-359 nM compared to 30000 nM), the “more selective for HDAC1, 2, 3 compared to Tubastatin A” value is reported as “approximately 100 fold”. For the same compound, the IC50 – broadly, the concentration needed to halve the response being measured – in the series with HDAC1, 2, 3 (range over the three isoforms, read-out: IC50 against HDAC1, 2, 3) fell in the range of 237 to 359 nM. Also, the “less selective HDAC6 inhibition compared to Tubastatin A” value at HDAC6 (23 nM compared to […] nM) stood at 1.5 fold. Besides, on HDAC6 (read-out: IC50 against HDAC6), the IC50 came out at 23 nM.

The values above are taken from US20250120928A1 (University of Maryland, Baltimore, priority 2021, published 2025).
